According to US20060040859A1, “Peptides, DNAs, RNAs, and compounds for inhibiting or inducing adrenomedullin activity, and use of the same” (priority 2002, published 2006):
“Also recorded” adds a separate entry of the source.

Experiments:
[1] = test system: newly generated blood vessels; assay: Anti-CD31 staining and diameters of newly generated blood vessels in tumor tissue (Example 4); format: in vivo, mouse; conditions: for Average ± standard deviation of blood vessel diameters: 100 newly generated blood vessels; for Number of blood vessels 2 μm to less than 8 μm / Number of blood vessels 8 μm or more / Number of blood vessels less than 2 μm: of 100 arbitrarily selected newly generated blood vessels, by diameter; for newly generated blood vessels by anti-CD31 staining: tumor tissue of Example 3 mice, FIG. 5
Description: The effect of a peptide of the present invention on angiogenesis was examined. Experiments were carried out with the tumor tissues of mice used in Example 3. Mouse tumor tissues were extirpated, and CD31 antigen, which is the cell surface marker specific for vascular endothelial cells, was stained with anti-CD31 antibody. Staining was performed as described below. The experiments were carried out using five mice.
Tumor tissues were frozen in liquid nitrogen to prepare frozen sections. After the frozen sections were pre-treated in albumin solution for 30 min, endogenous peroxidase activity was suppressed with hydrogen peroxide, and then, the sections were treated with anti-CD31 antibody for 1 h at room temperature. After washing, the sections were treated with a secondary antibody for 1 h, and coloured using […].
Next, 100 newly generated blood vessels of the vascular endothelial cells used in Example 4 were arbitrarily selected to measure their respective diameters. In Table 1, results of the number of the newly generated blood vessels classified by their diameters into three groups (less than 2 μm, 2 μm to less than 8 μm, and 8 μm or more) are shown together with the average of blood vessel diameters and standard deviations. In Table 1, AM stands for adrenomedullin, and AMA adrenomedullin antagonist.

PCI-43 cells [2] = assay: Intra-tumoral injection of AM or AMA peptide, tumor size of PCI-43 xenograft (Example 2); format: in vivo, mouse; conditions: 50 μg in 0.1 ml saline into the tumor once a day, 7th to 16th day, observed to 21st day, SCID mice
Description: On the dorsal side of a CB17lcr-scid Jl mouse (CLEA JAPAN Inc.), 10^7 PCI-43 cells were subcutaneously transplanted. It was confirmed that PCI-43 cells proliferated to form a tumor, and that the tumor diameter exceeded 5 mm after 7 days. After that confirmation, 50 μg […] each of adrenomedullin and a peptide of the present invention (dissolved in 0.1 ml of physiological saline) was injected into the tumor once a day starting on the 7th day until the 16th day. A peptide consisting of SEQ ID NO: 2 was used as the peptide of the present invention (hereinafter also referred to as an “adrenomedullin antagonist (AMA)”). This peptide was purchased from Wako Pure Chemical Industries, Ltd.
The tumor diameter was megascopically measured every three days. Results are shown in FIG. 2, a graphical representation of tumor sizes when adrenomedullin, adrenomedullin antagonist, and physiological saline (V3), respectively, were administered. The horizontal axis represents the number of days after transplanting PCI-43 cells, and the vertical axis the size of the tumor in volume (mm^3). Arrows at the upper part of the graph indicate timings of administration of adrenomedullin, adrenomedullin antagonist, and physiological saline. Five CB 17lcr-scid Jl mice were used in each group.

[3] = test system: proliferating cell nuclear antigen (PCNA) of tumor cells; assay: Anti-PCNA staining of tumor cells (Example 5); format: in vivo, mouse; conditions: for cells reacting with the anti-PCNA antibody: FIG. 6; for PCNA-labelling index: tumor cells of treated mice
Source text: The effect of a peptide of the present invention on cell proliferation was examined. The proliferating cell nuclear antigen (PCNA) of tumor cells from the mice used in Example 2 was stained with anti-PCNA antibody. The staining method was the same as in Example 4. Five mice were used in the experiment. The staining results for tumor cells of an adrenomedullin-administered mouse are shown on the left side in FIG. 6, while those of an adrenomedullin antagonist-administered mouse are shown on the right side.

HUVEC cells [4] = assay: MTS assay, AMA with AM on endothelial cells under hypoxic and nutrient-deprived conditions (Example 7C); format: cell-based; conditions: AM 10^-6 M, AMA 0 to 10^-6 M, VEGF and FGF 10 ng/ml, 48 h
Description: The effect of both AM and AMA together on the growth and apoptosis of endothelial cells under extreme conditions (hypoxic and nutrient-deprived) and in the presence of growth factors is examined herein. As in Example 1 above, hypoxic conditions comprised culture in 1% O2 concentration for 12 h using a hypoxic culture chamber (Wakenyaku Industry) and nutrient-deprived conditions involved addition of only 13 mg/dl glucose.
Five×10^3 cells (2×10^4 in some experiments) were plated in wells of 96-well plates. Human adrenomedullin (AM) (SEQ ID NO: 1) was added at a concentration of 10^−6 M and a human adrenomedullin antagonist peptide (AMA) (SEQ ID NO: 2) was added at indicated concentrations, ranging from 0 to 10^−6 M. VEGF and FGF were added at 10 ng/ml. The cells were incubated for 48 h and the viable cell numbers were determined by the MTS assay according to the manufacturer's instructions as described above in Example 7A.

cancer cells = assay: In vitro growth of cancer cells with AMA; format: cell-based
PCI-43 cells [5] = assay: Intra-tumoral injection of AM or AMA peptide, extirpated PCI-43 tumor size and weight (Example 3); format: in vivo, mouse
Description: On the dorsal side of CB17lcr-scid Jl mice (CLEA JAPAN Inc.), 10^7 PCI-43 cells were subcutaneously transplanted. It was confirmed that PCI-43 cells proliferated to form a tumor, and that the tumor diameter exceeded 5 mm after 7 days. After that confirmation, 50 μg each […] of adrenomedullin and adrenomedullin antagonist (dissolved in 0.1 ml of physiological saline) was injected into the tumor once every three days from the 7th day, that is, on the 7th, 10th, 13th, and 16th days. Adrenomedullin and adrenomedullin antagonist used herein were the same as those used in Example 1.
Mice were sacrificed on the 21st day, and tumors were extirpated and weighed.

HUVEC cells [6] = assay: MTS assay, endothelial cells under hypoxic and nutrient-deprived conditions with VEGF and FGF (Example 7B); format: cell-based; conditions: hypoxic and glucose-deprived, AM 0 to 10^-6 M, VEGF and FGF 10 ng/ml, 48 h
Description: The effect of AM on the growth and apoptosis of endothelial cells under extreme conditions (hypoxic and nutrient-deprived) and in the presence of growth factors is examined herein. As in Example 1 above, hypoxic conditions comprised culture in 1% O2 concentration for 12 h using a hypoxic culture chamber (Wakenyaku Industry) and nutrient-deprived conditions involved addition of only 13 mg/dl glucose.
Five×10^3 cells (2×10^4 in some experiments) were plated in wells of 96-well plates. Human adrenomedullin (AM) (SEQ ID NO: 1) was added at indicated concentrations, ranging from 0 to 10^−6 M. VEGF and FGF were added at 10 ng/ml. The cells were incubated for 48 h and the viable cell numbers were determined by the MTS assay according to the manufacturer's instructions as described above in Example 7A.

[7] = test system: Mitogen-activated protein kinases (MAPKS); assay: MAPK activity in Rat-2 cells; format: cell-based
Source text: (§1) In order to skip this problem, cell lines expressing endogenous adrenomedullin binding. Three cell lines to date are available. L6 cells are a rat myoblast cell line known to express CGRP1 receptors, Swiss 3T3 cells are a mouse fibroblast cell line, and Rat-2 cells are rat fibroblasts. […] L6 cells express CRLR and RAMPs 1 and 2. In Swiss 3T3 cells the effects of adrenomedullin were mediated via specific adrenomedullin receptors. […] These cells are useful in establishing the screening system to inhibit functionally the intracellular signal transduction after a receptor engagement by adrenomedullin.

U87 glioblastoma cells = conditions: exogenously added; cited from earlier work
HUVEC cells [8] = assay: MTS assay, endothelial cell growth under normoxic, normal glucose conditions (Example 7A); format: cell-based; conditions: AM 0 to 10^-6 M, 48 h, normoxic and nutrient-supplied
Description: The effect of AM on the growth of endothelial cells under normal conditions (normoxia, normal glucose) is examined herein. As in Example I above, normoxic conditions comprised culture in 20% O2 concentration and normal glucose conditions involved addition of 100 mg/dl of glucose or higher.
Five×10^3 cells (2×10^4 in some experiments) were plated in wells of 96-well plates. Human adrenomedullin (AM) (SEQ ID NO: 1) was added at indicated concentrations, ranging from 0 to 10^−6 M. The cells were incubated for 48 h and the viable cell numbers were determined by MTS assay according to the manufacturer's instructions. Cell viability can be reflected by the integrity of the mitochondria. When the MTS reagent (a tetrazolium salt) is applied to living cells, it is converted to a color compound (formazan) […] at 490 nm. Accordingly, the MTS assay may be used to assay cell viability and to count viable cells.

Rat-2 cells = assay: Intracellular cAMP in Rat-2 cells; format: cell-based; conditions: in the absence of CGRP binding
Source text: as §1

| Substance | Average ± standard deviation of blood vessel diameters [1] | Number of blood vessels 2 μm to less than 8 μm [1] | Number of blood vessels 8 μm or more [1] | Number of blood vessels less than 2 μm [1] | newly generated blood vessels by anti-CD31 staining [1] | cells reacting with the anti-PCNA antibody [3] | PCNA-labelling index [3] | apoptosis of endothelial cells (viable cells, O.D.) (HUVEC cells [6]) | also measured |
| --- | --- | --- | --- | --- | --- | --- | --- | --- | --- |
| AMA: 31 amino acid truncated human adrenomedullin lacking the first 21 N-terminal amino acids (SEQ ID NO: 2), purchased from Wako | 2.276 ± 1.120 μm | 44 | 1 | 55 | newly generated blood vessels were thin | few cells reacted with the anti-PCNA antibody | 6.3±5.2 |  | blood vessel diameters relative to adrenomedullin-administered mice ([1]; mouse, in vivo): one half; tumor size (volume) (PCI-43 cells [2]; listed as adrenomedullin antagonist): became almost megascopically invisible; also recorded: reduction in tumor volume; proliferating cells compared to adrenomedullin-administered mice ([3]; mouse, in vivo): decreased by about one quarter; apoptosis of endothelial cells (viable cells, O.D.) (HUVEC cells [4]): induced apoptosis of the endothelial cells in a dose dependent manner; growth inhibitory effect on cancer cells in vitro (cancer cells): did not exhibit any growth inhibitory effect; tumor weight relative to adrenomedullin-administered group (PCI-43 cells [5]; 21st day): about half; size of the extirpated tumor compared to adrenomedullin-administered group (PCI-43 cells [5]; 21st day, photograph FIG. 3, listed as adrenomedullin antagonist): became smaller; also recorded: noticeably smaller |
| VEGF |  |  |  |  |  |  |  | underwent apoptosis |  |
| adrenomedullin (YRQSMNNFQGLRSFGCRFGTCTVQKLAHQIYQFTDKDKDNVAPRSKISPQGY; listed as Homo sapiens) [AM, reference compound] | 6.454 ± 5.313 μm | 54 | 31 | 15 | thick blood vessels were newly generated | many cells reacting with the anti-PCNA antibody were present | 25.8±3.9 | protected the endothelial cells from apoptosis | PDGF-stimulated and basal MAPK activity [7]: potently and dose-dependently inhibited; growth of glioblastoma cells in vitro (U87 glioblastoma cells): can stimulate the growth; tumor size (volume) (PCI-43 cells [2]): the tumor size hardly changed; growth of endothelial cells (viable cells, O.D.) (HUVEC cells [8]): no significant effect; intracellular cAMP (Rat-2 cells): dose-dependent stimulation of intracellular cAMP; tumor weight (PCI-43 cells [5]; 50 μg into the tumor on 7th, 10th, 13th, 16th days, tumors extirpated on 21st day): about 0.05 g |
